The values that follow are results of earlier work, collected in PMC4826315 (Journal of molecular biology, 2016).

What is called IC50 is the concentration needed to halve the response being measured.

In one data set the test system is retinoblastoma tumors. As to conditions: mouse model system.
The next data set has as its system Mdm2. The conditions noted are these: read-out: IC50, inhibition of p53 binding to Mdm2; FP assay.

Take `COc1ccc(C2=N[C@@H](c3ccc(Cl)cc3)[C@@H](c3ccc(Cl)cc3)N2C(=O)N2CCNC(=O)C2)c(OC(C)C)c1` [Nutlin-3a]: the “effect on retinoblastoma tumors” value with retinoblastoma tumors is recorded as “caused regression of retinoblastoma tumors”. In the data set on Mdm2, the IC50 was […].
